Assay results reported in US20240067660A1, “MACROCYCLIC SPIROCYCLE DERIVATIVES AS MCL-1 INHIBITORS” (Janssen Pharmaceutica NV, priority 2019, published 2024).
Where two headings read alike, the source gives them in different places.

Experiments:
[1] = system: MOLP8 cells; assay: MOLP8 CellEvent Caspase-3/7 Green IncuCyte live-cell apoptosis assay; format: cell-based, human
Description: (§1) MCL-1 is a regulator of apoptosis and is highly over-expressed in tumor cells that escape cell death. The assay evaluates the cellular potency of small-molecule compounds targeting regulators of the apoptosis pathway, primarily MCL-1, Bfl-1, Bcl-2, and other proteins of the Bcl-2 family. Protein-protein inhibitors disrupting the interaction of anti-apoptotic regulators with BH3-domain proteins initiate apoptosis.
Activation of the apoptotic pathway was measured using the CellEvent™ Caspase-3/7 Green ReadyProbes™ Reagent (Thermo Fisher C10423, C10723). This assay produces a green fluorescent stain in cells that enter the apoptosis pathway. CellEvent® Caspase-3/7 Green reagent is a four amino acid peptide (DEVD) conjugated to a nucleic acid-binding dye that is non-fluorescent when not bound to DNA. The CellEvent® Caspase-3/7 Green reagent is intrinsically non-fluorescent, as the DEVD peptide inhibits binding of the dye to DNA. Upon activation of caspase-3/7 in apoptotic cells, the DEVD peptide is cleaved and the free dye can bind DNA, generating a bright green fluorescence. The activation of Caspase-3 and Caspase-7 is downstream of inhibition of MCL-1 or other apoptosis inhibiting proteins in cell lines that are dependent on them.
The live-cell readout on the IncuCyte permits tracking over time of the Caspase activation. […] The IncuCyte readout also allows one to normalize for cell number, as the suspension cells are hard to distribute evenly.
Signals were measured every 2 h for a duration of 22 h. The ratio of the Caspase mask to the Confluence mask, per image, as raw data, was calculated and the kinetic trace for every well was exported to Genedata Screener for analysis.
In Genedata Screener values for 6 h, 12 h, and 22 h from the kinetic traces were extracted. The values were normalized against negative controls (untreated cells). A standard dose-response analysis was performed on the normalized data.
The following data was reported at each of the following three aforementioned time points: (a) The dose-response curve, (b) The qAC50 and qAC50 Mode, and (c) Max Activity.
Cells were maintained in culture medium containing 10% Heat Inactivated (HI) FBS, 2 mM L-Glutamine and 50 μg/mL Gentamycin phenol red free RPMI-1640. Cells were split at 0.4 million/mL twice a week.
On Day 1, plates containing individual wells with test compounds at 10 mM concentration, 150 nL per well. The final concentrations range from […] compound (and no compound control) and compounds were thawed at room temperature for 1 hour. 25 μl of prewarmed medium was added into each well by multidrop (column 1, 3-22, 24), followed by addition of DMSO control (0.6% DMSO) in column 2. The plate was sealed using Breathe-Easy® sealing membrane and shaken for 30 min at room temperature to dissolve the test compound(s) in medium. The plate was then kept in the incubator for 1 hour at 37° C., 5% CO2.
MOLP8 cells in medium at […] (20000/50 μl final in assay) were prepared with CellEvent™ Caspase-3/7 Green Detection Reagent at 4 μM (2 μM final in assay). Once prepared, the cells were added to the test compound plate in an amount of 20000 and the plate was immediately placed in the IncuCyte and imaging started using following settings: 10× objective, 2 s exposure time in green channel, interval of 2 h, acquisition stopped after 22 h.
For analysis in IncuCyte, a Basic Analysis protocol was defined to calculate the “confluence” and “caspase” areas from the “Phase” and “green” images, respectively, as follows: (a) Confluence: Segmentation Adjustment 1, Hole Fill 0, Adjust Size −2, No filters (b) Caspase: Top-Hat segmentation, Radius 10, Threshold 0.3 GCU, Edge Split On with sensitivity 0, Hole Fill 0, Adjust Size 1, and filter on a minimum Area of 20 μm^2. The analyzer is trained on a sufficient number of positive and negative control wells, as well as compound treated wells, verifying that the “confluence” layer detects both live and dead (condensed) cells. […]

[2] = system: MOLP-8 human multiple myeloma cell line; assay: Caspase-Glo 3/7 assay in MOLP-8 cells; format: cell-based; settings: Caspase-Glo 3/7, 2 hours incubation, averaged over all runs on all batches, read-out: MOLP8 AC50
Excerpt: as §1
The Caspase-Glo® 3/7 Assay is a luminescent assay that measures caspase-3 and -7 activities in purified enzyme preparations or cultures of adherent or suspension cells. The assay provides a proluminescent caspase-3/7 substrate, which contains the tetrapeptide sequence DEVD. This substrate is cleaved to release aminoluciferin, a substrate of luciferase used in the production of light. Addition of the single Caspase-Glo® 3/7 Reagent in an “add-mix-measure” format results in cell lysis, followed by caspase cleavage of the substrate and generation of a “glow-type” luminescent signal.
This assay uses the MOLP-8 human multiple myeloma cell line, which is sensitive to MCL-1 inhibition.
Cell cultures were maintained between 0.2 and 2.0×10^6 cells/mL. The cells were harvested by collection in 50 mL conical tubes. The cells were then pelleted at 500 g for 5 mins before removing supernatant and resuspension in fresh pre-warmed culture medium. The cells were counted and diluted as needed.
The assay reagent was prepared by transferring the buffer solution to the substrate vial and mixing. The solution may be stored for up to 1 week at 4° C. with negligible loss of signal.
Compounds were delivered in assay-ready plates (Proxiplate) and stored at −20° C. Assays always include 1 reference compound plate containing reference compounds. The plates were spotted with 40 nL of compounds (0.5% DMSO final in cells; serial dilution; 30 μM highest conc. 1/3 dilution, 10 doses, duplicates). The compounds were used at room temperature and 4 μL of pre-warmed media was added to all wells except column 2 and 23. The negative control was prepared by adding 1% DMSO in media. The positive control was prepared by adding the appropriate positive control compound in final concentration of 60 μM in media. The plate was prepared by adding 4 μL negative control to column 23, 4 μL positive control to column 2 and 4 μL cell suspension to all wells in the plate. The plate with cells was then incubated at 37° C. for 2 hours. The assay signal reagent is the Caspase-Glo solution described above, and 8 μL was added to all wells. The plates were then sealed and measured after 30 minutes.
The activity of a test compound was calculated as percent change in apoptosis induction as follows: […]

[3] = target: Myeloid Cell Leukemia 1(Mcl-1) (Homo sapiens (Human), UniProt Q07820); assay: Terbium labeled Mcl-1 HTRF binding assay with Cy5-labeled BIM BH3 peptide
Description: Terbium labeled Myeloid Cell Leukemia 1(Mcl-1) homogeneous time-resolved fluorescence (HTRF) binding assay utilizing the BIM BH3 peptide (H2N-(C/Cy5Mal) WIAQELRRIGDEFN-OH) as the binding partner for Mcl-1.
This assay evaluated inhibition of the BH3 domain: Mcl-1 interaction by measuring the displacement of Cy5-labeled BIM BH3 peptide (H2N—(C/Cy5Mal) WIAQELRRIGDEFN-OH) in the HTRF assay format.
The following assay and stock buffers were prepared for use in the assay: (a) Stock buffer: 10 mM Tris-HCl, pH=7.5+150 mM NaCl, filtered, sterilized, and stored at 4° C.; and (b) 1× assay buffer, where the following ingredients were added fresh to stock buffer: 2 mM dithiothreitol (DTT), 0.0025% Tween-20, 0.1 mg/mL bovine serum albumin (BSA). The 1×Tb-Mcl-1+Cy5 Bim peptide solution was prepared by diluting the protein stock solution using the 1× assay buffer (b) to 25 pM Tb-Mcl-1 and 8 nM Cy5 Bim peptide.
Using the Acoustic ECHO, 100 nL of 100× test compound(s) were dispensed into individual wells of a white 384-well Perkin Elmer Proxiplate, for a final compound concentration of lx and final DMSO concentration of 1%. Inhibitor control and neutral control (NC, 100 nL of 100% DMSO) were stamped into columns 23 and 24 of assay plate. Into each well of the plate was then dispensed 10 μL of the 1×Tb-Mcl-1+Cy5 Bim peptide solution. The plate was centrifuged with a cover plate at 1000 rpm for 1 minute, then incubated for 60 minutes at room temperature with plates covered.
The TR-FRET signal was read on an BMG PHERAStar FSX MicroPlate Reader at room temperature using the HTRF optic module (HTRF: excitation: 337 nm, light source: laser, emission A: 665 nm, emission B: 620 nm, integration start: 60 μs, integration time: […]).
The BMG PHERAStar FSX MicroPlate Reader was used to measure fluorescence intensity at two emission wavelengths—665 nm and 620 nm—and report relative fluorescence units (RFU) for both emissions, as well as a ratio of the emissions (665 nm/620 nm)*10,000. The RFU values were normalized to percent inhibition as follows:
% inhibition=((NC−IC)−(compound−IC))/(NC−IC))*100
where IC (inhibitor control, low signal)=mean signal of 1×Tb-MCl-1+Cy5 Bim peptide+inhibitor control or 100% inhibition of Mcl-1; NC (neutral control, high signal)=mean signal 1×Tb-MCl-1+Cy5 Bim peptide with DMSO only or 0% inhibition An 11-point dose response curve was generated to determine IC50 values (using GenData) based on the following equation:
Y=Bottom+(Top−Bottom)/(1+10^((IogIC50−X)*HillSlope))
where Y=% inhibition in the presence of X inhibitor concentration; Top=100% inhibition derived from the IC (mean signal of Mcl-1+inhibitor control); Bottom=0% inhibition derived from the NC (mean signal of Mcl-1+DMSO); Hillslope=Hill coefficient; and IC50=concentration of compound with 50% inhibition in relation to top/neutral control (NC).
In this assay [L]=8 nM and Kd=10 nM

[4] = 6 h, read-out: MOLP8 Caspase 3/7 AC50 at 6 h
[5] = 12 h, read-out: MOLP8 Caspase 3/7 AC50 at 12 h
[6] = 22 h, read-out: MOLP8 Caspase 3/7 AC50 at 22 h
[7] = Homo sapiens, MOLP-8, 6 h, 6 h, read-out: MOLP8 Caspase 3/7 AC50 at 6 h
[8] = Homo sapiens, MOLP-8, 12 h, 12 h, read-out: MOLP8 Caspase 3/7 AC50 at 12 h
[9] = Homo sapiens, MOLP-8, 22 h, 22 h, read-out: MOLP8 Caspase 3/7 AC50 at 22 h
[10] = first table, [L]=8 nM, Kd=10 nM, before recalibration of the equipment

Sequence of Myeloid Cell Leukemia 1(Mcl-1) (Q07820 whole entry): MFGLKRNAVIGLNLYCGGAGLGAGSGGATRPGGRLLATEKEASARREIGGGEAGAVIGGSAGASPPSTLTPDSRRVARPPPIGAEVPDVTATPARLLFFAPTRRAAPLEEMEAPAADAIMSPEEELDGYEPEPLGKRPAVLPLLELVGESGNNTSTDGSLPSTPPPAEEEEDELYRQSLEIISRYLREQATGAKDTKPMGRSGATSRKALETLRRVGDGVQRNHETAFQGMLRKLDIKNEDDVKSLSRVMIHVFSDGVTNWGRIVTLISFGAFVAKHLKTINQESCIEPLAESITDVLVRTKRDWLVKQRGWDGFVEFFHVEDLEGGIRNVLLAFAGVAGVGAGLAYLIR

SMILES | AC50 [1, 7] | AC50 [1, 8] | AC50 [1, 9] | further results
C[C@@H]1[C@@H](C)C/C=C/CN2CC[C@H]2CN2CC3(CCOc4cc(Cl)ccc43)COc3ccc(cc32)C(=O)NS1(=O)=O (single isomer, unassigned) [Compound 5] |  |  |  | AC50 [1, 4]: 6310 nM; AC50 [1, 5]: 6600 nM; AC50 [1, 6]: 5750 nM; AC50 ([2]; Homo sapiens, MOLP-8, 2 h): 3740 nM
C[C@@H]1[C@@H](C)C/C=C/CN2CC[C@H]2CN2CC3(CCOc4cc(Cl)ccc43)COc3ccc(cc32)C(=O)NS1(=O)=O (single isomer, unassigned) [Compound 6] |  |  |  | AC50 [1, 4]: > 30000 nM; AC50 [1, 5]: > 30000 nM; AC50 [1, 6]: > 30000 nM
COCC1(CO)/C(F)=C/C[C@H](C)[C@@H](C)S(=O)(=O)NC(=O)c2ccc3c(c2)N(C[C@@H]2CCN21)C[C@@]1(CCCc2cc(Cl)ccc21)CO3 (single isomer, unassigned) [Compound 38] |  |  |  | Ki ([3]; obtained after recalibration of the equipment, averaged values over several runs): 0.15 nM; AC50 [2]: 152 nM
C[C@@H]1[C@@H](C)C/C=C(/F)CN2CC[C@H]2CN2C[C@@]3(CCCc4cc(Cl)ccc43)COc3ccc(cc32)C(=O)NS1(=O)=O [Compound 1] | 7760 nM | ~10500 nM | 7940 nM | 
C[C@@H]1[C@@H](C)C/C=C(\F)CN2CC[C@H]2CN2C[C@@]3(CCCc4cc(Cl)ccc43)COc3ccc(cc32)C(=O)NS1(=O)=O [Compound 2] | ~970 nM | ~1050 nM | 1200 nM | AC50 ([2]; Homo sapiens, MOLP-8, 2 h): 692 nM
C[C@@H]1[C@@H](C)C/C=C/CN2CC[C@H]2CN2C[C@@]3(CCCc4cc(Cl)ccc43)COc3ccc(cc32)C(=O)NS1(=O)=O [Compound 3] | 2400 nM | 2690 nM | 3090 nM | Ki [3, 10]: 3.14 nM
COCCOCCOC[C@H]1/C(F)=C/C[C@H](C)[C@@H](C)S(=O)(=O)NC(=O)c2ccc3c(c2)N(C[C@@H]2CCN21)C[C@@]1(CCCc2cc(Cl)ccc21)CO3 [Compound 14] | 300 nM | 350 nM | 370 nM | Ki [3, 10]: 0.34 nM
COC[C@H]1/C(F)=C/C[C@H](C)[C@@H](C)S(=O)(=O)NC(=O)c2ccc3c(c2)N(C[C@@H]2CCCN21)C[C@@]1(CCCc2cc(Cl)ccc21)CO3 [Compound 20] | 810 nM | 700 nM | 610 nM | Ki [3, 10]: 0.91 nM
C[C@@H]1[C@@H](C)C/C=C(\F)[C@H](COCCN2CCOCC2)N2CC[C@H]2CN2C[C@@]3(CCCc4cc(Cl)ccc43)COc3ccc(cc32)C(=O)NS1(=O)=O [Compound 30] | 630 nM | 560 nM | 620 nM | 
C[C@@H]1[C@@H](C)C/C=C(\F)[C@H](CN2CCN3CCN(C)C[C@@H]3C2)N2CC[C@H]2CN2C[C@@]3(CCCc4cc(Cl)ccc43)COc3ccc(cc32)C(=O)NS1(=O)=O [Compound 32] | 1100 nM | 960 nM | 960 nM | 
C[C@@H]1[C@@H](C)C/C=C(\F)[C@H](CN2CCOCC2)N2CC[C@H]2CN2C[C@@]3(CCCc4cc(Cl)ccc43)COc3ccc(cc32)C(=O)NS1(=O)=O [Compound 33] | 330 nM | 340 nM | 560 nM | 
COCCOCC1(COCCOC)/C(F)=C/C[C@H](C)[C@@H](C)S(=O)(=O)NC(=O)c2ccc3c(c2)N(C[C@@H]2CCN21)C[C@@]1(CCCc2cc(Cl)ccc21)CO3 [Compound 41] |  |  |  | AC50 ([2]; Homo sapiens, MOLP-8, 2 h): 152 nM
